Reference: patent US20150143553A1, “Methods And Compositions Comprising A Drosophila Model Of Amyotrophic Lateral Sclerosis” (priority 2013, published 2015)
Counter-ions that a name gives are not always drawn.

Experiments:
[1] = system: Drosophila larvae expressing A315T TDP-43 in motor neurons; experiment: Drug screen: rescue of lethality caused by A315T TDP-43 expression in motor neurons (D42 Gal4); type: in vivo; settings: transgene A315T; 50 μM in fly food
Experimental: (§1) 1200 FDA approved drugs from the Prestwick collection were fed to flies expressing TDP-43 at an initial concentration of 50 μM (as previously described in Chang et al., 2008).
(§2) FDA approved drugs from the Prestwick collection (200 mM in DMSO) are mixed with yeast-cornmeal based food and a bromophenol blue (as a mixing indicator) at a final concentration of 50 μM. Larvae expressing TDP-43 (wild type or mutant, as shown) are raised on drug containing food.
(§3) FDA approved drugs from the Prestwick collection (200 mM in DMSO) were mixed with yeast-cornmeal based food and a bromophenol blue (as a mixing indicator) at a final concentration of 50 μM. Larvae expressing TDP-43 (wt or mutant) were raised on drug containing food.
(§4) Using a Drosophila model of ALS based on TDP-43 that recapitulates several aspects of the disease pathophysiology (33, 35), a drug screen aimed at identifying FDA approved compounds with neuroprotective potential in vivo were designed (FIG. 37A). […] This phenotype was used to screen for drug candidates with therapeutic potential as determined by their ability to rescue pupal lethality and produce viable adults with extended wings (FIG. 37A).

[2] = system: Drosophila larvae expressing N345K TDP-43 in motor neurons; experiment: Drug screen: rescue of lethality caused by N345K TDP-43 expression in motor neurons (D42 Gal4); type: in vivo; settings: transgene N345K; 50 μM in fly food
Experimental: A drug screen aimed at rescuing the adult lethality caused by wild-type or mutant TDP-43 (D169G, G298S, A315T and N345K) overexpression in motor neurons has been performed (FIG. 11). 1200 FDA approved drugs from the Prestwick collection were fed to flies expressing TDP-43 at an initial concentration of 50 μM (as previously described in Chang et al., 2008). This screening strategy has several advantages including: (1) it is performed in vivo, (2) it is based on a robust phenotype (100% adult lethality), (3) it can lead to rapid identification of drugs that are already approved for use in humans and (4) it can inform the future development of small molecules with enhanced neuroprotective capabilities.
as §2, with “food. In the absence of drugs, TDP-43 expression is lethal at the pupal/pharate stage. Drugs that rescued TDP-43 Induced Lethality (anywhere from 1-12 adults) were considered as candidates for future studies.” for “food.”
as §3, with “food. In the absence of drugs, TDP-43 expression was lethal at the pupal/pharate stage. Drugs that rescue TDP-43 induced lethality (anywhere from 1-12 adults) were considered as candidates for future studies.” for “food.”
Using a Drosophila model of ALS based on TDP-43 that recapitulates several aspects of the disease pathophysiology (33, 35), a drug screen aimed at identifying FDA approved compounds with neuroprotective potential in vivo were designed (FIG. 37A). […] This phenotype was used to screen for drug candidates with therapeutic potential as determined by their ability to rescue pupal lethality and produce viable adults with extended wings (FIG. 37A). […]

[3] = system: Drosophila larvae expressing D169G TDP-43 in motor neurons; experiment: Drug screen: rescue of lethality caused by D169G TDP-43 expression in motor neurons (D42 Gal4); type: in vivo; settings: transgene D169G; 30 μM in fly food
[4] = system: Drosophila larvae expressing wild-type TDP-43 in motor neurons; experiment: Drug screen: rescue of lethality caused by wild-type TDP-43 expression in motor neurons (D42 Gal4); type: in vivo; settings: for Preliminary rescue result: adults with normal wings: transgene WT2
[5] = system: cytochrome P450; settings: cited from earlier work
[6] = system: Drosophila larvae expressing G298S TDP-43 in motor neurons; experiment: Drug screen: rescue of lethality caused by G298S TDP-43 expression in motor neurons (D42 Gal4); type: in vivo; settings: transgene G298S; 30 μM in fly food
Description: […] Larvae expressing TDP-43 (wild type or mutant, as shown) are raised on drug containing food.
[…] Larvae expressing TDP-43 (wt or mutant) were raised on drug containing food.
as §4
Larvae expressing TDP-43 in motor neurons (D42>TDP-43) were raised on fly food containing different amounts of drug (1, 10 and 25 μM, see Materials and Methods for details) or Dimethyl Sulfoxide (DMSO) as vehicle control (FIG. 37B, C).
UAS TDP-43 males were crossed with D42-Gal4 female virgins on fly food containing either DMSO or pioglitazone. For DMSO controls, the same volume of DMSO as the corresponding drug concentration was added. Bromophenol blue was added to a final concentration of approximately 0.02% to ensure homogeneity. Crosses were made on drug food with 3 female virgins and 2 males in each vial, and were maintained at 25° C. unless noted. The parents were discarded after 5-7 days then the vials were screened for adult progeny with straight wings from day 14 to day 25. All adults were screened for TDP-43 expression by visualizing the YFP tag. Total number of pupae was counted on day 25. Percent survival was calculated using the formula (total number of straight-winged adults/total number of pupae)×100. All experiments were performed in triplicate.

[7] = system: Drosophila larvae expressing D169G TDP-43 in motor neurons; experiment: Drug screen: rescue of lethality caused by D169G TDP-43 expression in motor neurons (D42 Gal4); type: in vivo; settings: transgene D169G; 50 μM in fly food
Experimental: as §1, §2, §3, §4

Compound: CC[C@@H](C(N)=O)N1CCCC1=O [Levetiracetam]
- Preliminary rescue result: adults with normal wings [1]: 3 Adult Normal Wings Adults

Compound: CN(C)c1ccc(O)c2c1C[C@H]1C[C@H]3[C@H](N(C)C)C(O)=C(C(N)=O)C(=O)[C@@]3(O)C(O)=C1C2=O [Minocycline]
- Preliminary rescue result: adults with normal wings [2]: 1 Adult Normal Wings Adults

Compound: CC(C)NC[C@@H](O)COc1ccc(CC(N)=O)cc1 [R-(+)-Atenolol]
- Preliminary rescue result: adults with normal wings [3]: 1 Adults
- Preliminary rescue result: adults with normal wings ([4]; 30 μM in fly food): 2 Adults

Compound: Cc1c(C)c2c(c(C)c1O)CCC(C)(COc1ccc(CC3SC(=O)NC3=O)cc1)O2 (stereo not shown) [Troglitazone]
- activity in high-throughput screen for modulators of cytochrome P450 [5]: active
- Preliminary rescue result: adults with normal wings ([4]; 50 μM in fly food): 2 Adults Normal Wings
- Rescue Effect ([4]; transgene wt, primary screening (50 μM), out of 15-20 pupae): 2 adults

Compound: CCCCNc1ccc(C(=O)OCCN(C)C)cc1 [Tetracaine Hydrochloride]
- Preliminary rescue result: adults with normal wings [1]: 2 Adult Normal Wings Adults

Compound: C1CCC(C(CC2CCCCN2)C2CCCCC2)CC1 (stereo not shown) [Perhexiline Maleate]
- Preliminary rescue result: adults with normal wings [2]: 12 Adults

Compound: CC(=O)N[C@@H](CS)C(=O)O [Acetylcysteine]
- Preliminary rescue result: adults with normal wings [6]: 1 Adults
- Preliminary rescue result: adults with normal wings [3]: 1 Adults

Compound: CCCC(C)C1(CC)C(=O)NC(=O)NC1=O (stereo not shown) [Pentobarbital]
- Preliminary rescue result: adults with normal wings [1]: 3 Adult Normal Wings Adults

Compound: CN1C(=O)CCS(=O)(=O)C1c1ccc(Cl)cc1 (stereo not shown) [Chlormezanone]
- Preliminary rescue result: adults with normal wings [2]: 1 Adult Normal Wings Adults

Compound: OCc1cc(C(O)CNCCCCCCOCCCCc2ccccc2)ccc1O (stereo not shown) [Salmeterol]
- Preliminary rescue result: adults with normal wings [3]: 1 Adult Normal Wings × 2 Adults
- Preliminary rescue result: adults with normal wings ([4]; 30 μM in fly food): 1 Adult Normal Wings × 2 Adults

Compound: C[C@]12Cc3c[nH]nc3C[C@@H]1CC[C@@H]1[C@@H]2CC[C@@]2(C)[C@H]1CC[C@]2(C)O [Stanozolol]
- Preliminary rescue result: adults with normal wings [7]: 3 Adult Normal Wings Adults

Compound: CN(C)CCC=C1c2ccccc2C=Cc2ccccc21 [Cyclobenzaprine HCl]
- Preliminary rescue result: adults with normal wings [7]: 1 Adult Normal Wings Adults

Compound: Clc1ccc(C(Cn2ccnc2)OCc2ccsc2Cl)c(Cl)c1 (stereo not shown) [Tioconazole]
- Preliminary rescue result: adults with normal wings [1]: 2 Adults Normal Wings

Compound: CC(=O)NCCCS(=O)(=O)[O-].CC(=O)NCCCS(=O)(=O)[O-].[Ca+2] [Acamprosate Calcium]
- Preliminary rescue result: adults with normal wings [7]: 1 Adult Normal Wings Adults

Compound: CN1CCCN(C(c2ccccc2)c2ccc(Cl)cc2)CC1 (stereo not shown) [Homochlorcyclizine]
- Preliminary rescue result: adults with normal wings [1]: 1 Adult Normal Wings Adults
- Preliminary rescue result: adults with normal wings ([4]; 50 μM in fly food): 3 Adults Normal Wings,

Compound: Tyloxapol
- Preliminary rescue result: adults with normal wings [3]: 1 Adult Normal Wings Adults
